This is an account of results in patent publication US20140073631A1 (priority 2012, published 2014).

SMILES strings stand for the structures. In brackets after ≈: the same amount, converted by molar mass.

By % inhibition is commonly meant how much of the control response was suppressed. High values mean a response far below the control, low ones a response near the control.

What all share (assay): microbe, parasite or virus in culture
Assay [1] relates to isoniazid (INH)-resistant Mtb (SRI 1369). Type of assay: cell-based, Mycobacterium tuberculosis. The following applies: for MIC: Mycobacterium tuberculosis, read-out: MIC INH-R.
The test system of assay [2] is ofloxacin (OFX)-resistant Mtb (SRI 4000). The format is cell-based, Mycobacterium tuberculosis. The conditions noted are these: for MIC: Mycobacterium tuberculosis, read-out: MIC OFX-R.
The subject of assay [3] is rifampin (RMP)-resistant Mtb (SRI 1367). The format is cell-based, Mycobacterium tuberculosis. The following applies: for MIC: Mycobacterium tuberculosis, read-out: MIC RMP-R.
Assay [4] deals with ATCC 35837 Ethambutol Resistant. The format is cell-based. The following applies: Mycobacterium tuberculosis, ATCC35837, read-out: MIC Value, ATCC 35837 Ethambutol Resistant.
In assay [5] the test system is ATCC 35821 Para-aminosalicylic Resistant. Type of assay: cell-based, Mycobacterium tuberculosis. The conditions noted are these: for MIC: Mycobacterium tuberculosis, ATCC35821, read-out: MIC Value, ATCC 35821 Para-aminosalicylic Resistant.
Assay [6] concerns ATCC 35822 Isoniazid Resistant. Type of assay: cell-based. The conditions noted are these: Mycobacterium tuberculosis, ATCC35822, read-out: MIC Value, ATCC 35822 Isoniazid Resistant.
Assay [7] concerns ATCC 35820 Streptomycin Resistant. The format is cell-based. The conditions noted are these: Mycobacterium tuberculosis, ATCC35820, read-out: MIC Value, ATCC 35820 Streptomycin Resistant.
Assay [8] deals with ATCC 35830 Ethionamide Resistant. Type of assay: cell-based. The following applies: Mycobacterium tuberculosis, ATCC35830, read-out: MIC Value, ATCC 35830 Ethionamide Resistant.
Assay [9] concerns ATCC 35827 Kanamycin Resistant. Type of assay: cell-based. The conditions noted are these: Mycobacterium tuberculosis, ATCC35827, read-out: MIC Value, ATCC 35827 Kanamycin Resistant.

In the case of `N=C(NCCCCCCNC(=N)NC(=N)N1CCN(c2cc3c(cc2F)c(=O)c(C(=O)O)cn3C2CC2)CC1)NC(=N)N1CCN(c2cc3c(cc2F)c(=O)c(C(=O)O)cn3C2CC2)CC1` [BVS-10A], the entries for the “% inhibition at the MIC concentration” value in assay [1], in [2] and in assay [3] were 53%, 74% and 58%, respectively. Besides, the MIC in assay [1] came out at 1.56 µg/mL (≈ 1.71 µM); in [2], 0.781 µg/mL (≈ 0.855 µM); in [3], 6.25 µg/mL (≈ 6.85 µM).
For the molecule `CC1COc2c(N3CCN(C(=N)NC#N)CC3)c(F)cc3c(=O)c(C(=O)O)cn1c23` (stereo not drawn) [BVS-60C (XVII)], the MIC in assay [4] is 0.625 µg/mL (≈ 1.51 µM); in assay [5], 0.625 to 1.25 µg/mL (≈ 1.51 to 3.02 µM); in assay [6] it was 0.625 µg/mL (≈ 1.51 µM); in assay [7], 0.312 µg/mL (≈ 0.753 µM); in assay [8], 0.312 µg/mL (≈ 0.753 µM); in assay [9], 0.625 µg/mL (≈ 1.51 µM).
`C[C@@H]1COc2c(N3CCN(C(=N)NC(=N)N4CCN(c5c(F)cc6c(=O)c(C(=O)O)cn7c6c5OC[C@@H]7C)CC4)CC3)c(F)cc3c(=O)c(C(=O)O)cn1c23` [BVS-76D (XVII)]: the MIC in assay [4] is 0.312 to 0.625 µg/mL (≈ 0.41 to 0.82 µM); in assay [5], 0.625 to 1.25 µg/mL (≈ 0.82 to 1.64 µM); in [6], 0.625 µg/mL (≈ 0.82 µM); in assay [7], 0.312 µg/mL (≈ 0.41 µM); in [8], 0.156 µg/mL (≈ 0.205 µM); in assay [9] it was 0.625 µg/mL (≈ 0.82 µM).
On to `C[C@@H]1COc2c(N3CCN(C(=N)NC(=N)NCCCCCCNC(=N)NC(=N)N4CCN(c5c(F)cc6c(=O)c(C(=O)O)cn7c6c5OC[C@@H]7C)CC4)CC3)c(F)cc3c(=O)c(C(=O)O)cn1c23` [BVS-85A (XVII)], for which the MIC in assay [4] was 1.25 µg/mL (≈ 1.32 µM); in assay [5], 2.5 µg/mL (≈ 2.65 µM); in assay [6], 1.25 µg/mL (≈ 1.32 µM); in assay [7] it was 0.625 µg/mL (≈ 0.661 µM); in assay [8], 0.625 µg/mL (≈ 0.661 µM); in [9], 1.25 to 2.5 µg/mL (≈ 1.32 to 2.65 µM).
As for `CC[C@@H](CO)NCCN[C@@H](CC)CO` [Ethambutol, reference compound], the MIC in assay [4] is above 8 µg/mL.
`CCc1cc(C(N)=S)ccn1` [Ethionamide, reference compound]: the MIC in assay [8] was above 8 µg/mL.
Turning to `NNC(=O)c1ccncc1` [Isoniazid, isoniazid, reference compound], the MIC in assay [6] is above 8 µg/mL. In [3], the “% inhibition at the MIC concentration” value came out at 86% and the MIC worked out at 0.02 µg/mL (≈ 0.146 µM).
On to `NC[C@H]1O[C@H](O[C@H]2[C@H](O)[C@@H](O[C@H]3O[C@H](CO)[C@@H](O)[C@H](N)[C@H]3O)[C@H](N)C[C@@H]2N)[C@H](O)[C@@H](O)[C@@H]1O` [Kanamycin, reference compound], for which, in assay [9], the MIC is above 8 µg/mL.
Turning to `Nc1ccc(C(=O)O)c(O)c1` [Para-aminosalicylic, reference compound], the “MIC Value, ATCC 35821 Para-aminosalicylic Resistant” value in assay [5] was above 8 µg/mL.
In the case of `CO[C@H]1/C=C/O[C@@]2(C)Oc3c(C)c(O)c4c(O)c(c(/C=N/N5CCN(C)CC5)c(O)c4c3C2=O)NC(=O)/C(C)=C\C=C\[C@H](C)[C@H](O)[C@@H](C)[C@@H](O)[C@@H](C)[C@H](OC(C)=O)[C@@H]1C` [Rifampin, rifampin, reference compound], the entries for the “% inhibition at the MIC concentration” value in [1] and in [2] were 67% and 75%, respectively. The values for the MIC in assay [1] and in [2] were 0.049 µg/mL (≈ 0.0595 µM) and 0.195 µg/mL (≈ 0.237 µM), respectively.
With `[H]/N=C(/N)N[C@H]1[C@H](O)[C@@H](O)[C@H](O[C@@H]2O[C@@H](C)[C@](O)(C=O)[C@H]2O[C@@H]2O[C@@H](CO)[C@H](O)[C@@H](O)[C@@H]2NC)[C@@H](N/C(N)=N\[H])[C@@H]1O` [Streptomycin, reference compound], the MIC in assay [7] is above 8 µg/mL.
